According to US20200172966A1 (YAMAGUCHI UNIVERSITY, priority 2015, published 2020):

Assay: incidence of side effect (hematologic toxicity) by single nucleotide polymorphism genotype in Japanese patients with colon cancer who had received irinotecan
Format: in vivo, human
Method: By using TaqMan SNP Assays Human (manufactured by Applied Biosystems, Inc.) and LightCycler (R) 480 Probe Master (manufactured by Roche Diagnostics, Inc.), Universal ProbeLibrary (manufactured by Roche Diagnostics, Inc.), and LightCycler 480 System II (manufactured by Roche Diagnostics, Inc.), 10 ng of genomic DNA was subjected to genotyping. After incubation at 95° C. for 10 min, the sample was subjected to PCR amplification with 55 cycles for rs1980576, rs2272761, and rs9425343, 45 cycles for rs12577167, rs7265854, and rs1135640, or 40 cycles for rs1547 (1 cycle consisted of 92° C. for 15 sec and 60° C. for 60 sec). The fluorescence emitted from the PCR products were measured.
The “Odds ratio” in Table 3 refers to an odds ratio indicating the occurrence of a side effect as calculated using a Fisher's exact test on a single nucleotide polymorphism being homozygous for a wild-type or homozygous for a variant type.
The term (P value/C.-A.) in Table 4 is the same as in Table 2. […] The term “Odds ratio” in Table 5 is the same as in Table 3.

[1] = N = 72, homozygous UGT1A1*28 excluded (Table 5), ACOX1 rs1135640 G/G
[2] = N = 72, homozygous UGT1A1*28 excluded, ACOX1 rs1135640 C/C, C/G
[3] = N = 72, homozygous UGT1A1*28 excluded, APCDD1L rs1980576 A/A
[4] = N = 72, homozygous UGT1A1*28 excluded, APCDD1L rs1980576 A/A, A/G
[5] = N = 72, homozygous UGT1A1*28 excluded, APCDD1L rs1980576 A/G, G/G
[6] = N = 72, homozygous UGT1A1*28 excluded, APCDD1L rs1980576 G/G
[7] = N = 72, homozygous UGT1A1*28 excluded, APCDD1L rs7265854 C/C
[8] = N = 72, homozygous UGT1A1*28 excluded, APCDD1L rs7265854 T/T, T/C
[9] = N = 72, homozygous UGT1A1*28 excluded, EDEM3 rs9425343 T/G, G/G
[10] = N = 72, homozygous UGT1A1*28 excluded, EDEM3 rs9425343 T/T
[11] = N = 72, homozygous UGT1A1*28 excluded, R3HCC1 rs2272761 G/A, A/A
[12] = N = 72, homozygous UGT1A1*28 excluded, R3HCC1 rs2272761 G/G
[13] = N = 72, homozygous UGT1A1*28 with reduced amount of irinotecan excluded (Table 4), ACOX1 rs1135640 C/C
[14] = N = 72, homozygous UGT1A1*28 with reduced amount of irinotecan excluded (Table 4), ACOX1 rs1135640 C/G
[15] = N = 72, homozygous UGT1A1*28 with reduced amount of irinotecan excluded (Table 4), ACOX1 rs1135640 G/G
[16] = N = 73, homozygous UGT1A1*28 with reduced amount of irinotecan excluded, APCDD1L rs1980576 A/A
[17] = N = 73, homozygous UGT1A1*28 with reduced amount of irinotecan excluded, APCDD1L rs1980576 A/G
[18] = N = 73, homozygous UGT1A1*28 with reduced amount of irinotecan excluded, APCDD1L rs1980576 G/G
[19] = N = 73, homozygous UGT1A1*28 with reduced amount of irinotecan excluded, APCDD1L rs7265854 A/A
[20] = N = 73, homozygous UGT1A1*28 with reduced amount of irinotecan excluded, APCDD1L rs7265854 A/G
[21] = N = 73, homozygous UGT1A1*28 with reduced amount of irinotecan excluded, APCDD1L rs7265854 G/G
[22] = N = 73, homozygous UGT1A1*28 with reduced amount of irinotecan excluded, CSMD2 rs474474 A/A
[23] = N = 73, homozygous UGT1A1*28 with reduced amount of irinotecan excluded, CSMD2 rs474474 A/G
[24] = N = 73, homozygous UGT1A1*28 with reduced amount of irinotecan excluded, CSMD2 rs474474 G/G
[25] = N = 73, homozygous UGT1A1*28 with reduced amount of irinotecan excluded, EDEM3 rs9425343 G/G
[26] = N = 73, homozygous UGT1A1*28 with reduced amount of irinotecan excluded, EDEM3 rs9425343 T/G
[27] = N = 73, homozygous UGT1A1*28 with reduced amount of irinotecan excluded, EDEM3 rs9425343 T/T
[28] = N = 73, homozygous UGT1A1*28 with reduced amount of irinotecan excluded, GATA2 rs2335052 A/A
[29] = N = 73, homozygous UGT1A1*28 with reduced amount of irinotecan excluded, GATA2 rs2335052 G/A
[30] = N = 73, homozygous UGT1A1*28 with reduced amount of irinotecan excluded, GATA2 rs2335052 G/G
[31] = N = 73, homozygous UGT1A1*28 with reduced amount of irinotecan excluded, MKKS rs1547 C/C
[32] = N = 73, homozygous UGT1A1*28 with reduced amount of irinotecan excluded, MKKS rs1547 C/T
[33] = N = 73, homozygous UGT1A1*28 with reduced amount of irinotecan excluded, MKKS rs1547 T/T
[34] = N = 73, homozygous UGT1A1*28 with reduced amount of irinotecan excluded, OR51I2 rs12577167 A/A
[35] = N = 73, homozygous UGT1A1*28 with reduced amount of irinotecan excluded, OR51I2 rs12577167 A/G
[36] = N = 73, homozygous UGT1A1*28 with reduced amount of irinotecan excluded, OR51I2 rs12577167 G/G
[37] = N = 73, homozygous UGT1A1*28 with reduced amount of irinotecan excluded, R3HCC1 rs2272761 A/A
[38] = N = 73, homozygous UGT1A1*28 with reduced amount of irinotecan excluded, R3HCC1 rs2272761 G/A
[39] = N = 73, homozygous UGT1A1*28 with reduced amount of irinotecan excluded, R3HCC1 rs2272761 G/G

CCc1c2c(nc3ccc(OC(=O)N4CCC(N5CCCCC5)CC4)cc13)-c1cc3c(c(=O)n1C2)COC(=O)[C@]3(O)CC [irinotecan, 1,4′-Bipiperidine-1′-carboxylic acid (S)-4,11-diethyl-3,4,12,14-tetrahydro-4-hydroxy-3,14-dioxo-1H-pyrano[3′,4′:6,7]indolizino[1,2-b]quinolin-9-yl ester]
Toxicity No [1]: 21 | Toxicity Yes [1]: 8 | Toxicity No [2]: 17 | Toxicity Yes [2]: 26 | Toxicity No [3]: 16 | Toxicity Yes [3]: 6 | Toxicity No [4]: 35 | Toxicity Yes [4]: 26 | Toxicity No [5]: 22 | Toxicity Yes [5]: 28 | Toxicity No [6]: 3 | Toxicity Yes [6]: 8 | Toxicity No [7]: 8 | Toxicity Yes [7]: 1 | Toxicity No [8]: 30 | Toxicity Yes [8]: 33 | Toxicity No [9]: 31 | Toxicity Yes [9]: 21 | Toxicity No [10]: 7 | Toxicity Yes [10]: 13 | Toxicity No [11]: 32 | Toxicity Yes [11]: 34 | Toxicity No [12]: 6 | Toxicity Yes [12]: 0 | Toxicity No [13]: 3 | Toxicity Yes [13]: 8 | Toxicity No [14]: 14 | Toxicity Yes [14]: 18 | Toxicity No [15]: 21 | Toxicity Yes [15]: 8 | Toxicity No [16]: 16 | Toxicity Yes [16]: 6 | Toxicity No [17]: 20 | Toxicity Yes [17]: 20 | Toxicity No [18]: 3 | Toxicity Yes [18]: 8 | Toxicity No [19]: 13 | Toxicity Yes [19]: 18 | Toxicity No [20]: 18 | Toxicity Yes [20]: 15 | Toxicity No [21]: 8 | Toxicity Yes [21]: 1 | Toxicity No [22]: 16 | Toxicity Yes [22]: 22 | Toxicity No [23]: 18 | Toxicity Yes [23]: 8 | Toxicity No [24]: 5 | Toxicity Yes [24]: 4 | Toxicity No [25]: 10 | Toxicity Yes [25]: 5 | Toxicity No [26]: 21 | Toxicity Yes [26]: 16 | Toxicity No [27]: 8 | Toxicity Yes [27]: 13 | Toxicity No [28]: 5 | Toxicity Yes [28]: 5 | Toxicity No [29]: 20 | Toxicity Yes [29]: 12 | Toxicity No [30]: 14 | Toxicity Yes [30]: 17 | Toxicity No [31]: 20 | Toxicity Yes [31]: 10 | Toxicity No [32]: 16 | Toxicity Yes [32]: 19 | Toxicity No [33]: 3 | Toxicity Yes [33]: 5 | Toxicity No [34]: 19 | Toxicity Yes [34]: 23 | Toxicity No [35]: 14 | Toxicity Yes [35]: 10 | Toxicity No [36]: 6 | Toxicity Yes [36]: 1 | Toxicity No [37]: 22 | Toxicity Yes [37]: 24 | Toxicity No [38]: 11 | Toxicity Yes [38]: 10 | Toxicity No [39]: 6 | Toxicity Yes [39]: 0 | irinotecan side effect observed (of 68 cases considered to have a low risk of a side effect in view of the UGT1A gene polymorphisms): 29 cases
